Structures can show the parent of a compound that is named as a salt.
Biological target: RIPK1 (recombinant GST-RIPK1 kinase domain, residues 1-327) (Homo sapiens (Human), UniProt Q13546)
Experiment: RIPK1-ADP-Glo Enzymatic Assay
Type: biochemical
Details: ADP-Glo; 25 nM GST-RIPK1, 300 μM ATP; assay lower limit ~25 nM; read-out: RIPK1 V0 Ec50
How it was run: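 Enzyme from baculovirus-infected Sf21 cells, 25 nM final, was pre-incubated 30 min at ambient temperature with compound (ten-point, 1:3 dilution from 100000 nM, 1% DMSO), then reacted 150 min with 300 μM ATP and 3 μM dephosphorylated MBP. ADP was read by luminescence; EC50 from four-parameter fit.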

RIPK1 (recombinant GST-RIPK1 kinase domain, residues 1-327), sequence (Q13546 1-327): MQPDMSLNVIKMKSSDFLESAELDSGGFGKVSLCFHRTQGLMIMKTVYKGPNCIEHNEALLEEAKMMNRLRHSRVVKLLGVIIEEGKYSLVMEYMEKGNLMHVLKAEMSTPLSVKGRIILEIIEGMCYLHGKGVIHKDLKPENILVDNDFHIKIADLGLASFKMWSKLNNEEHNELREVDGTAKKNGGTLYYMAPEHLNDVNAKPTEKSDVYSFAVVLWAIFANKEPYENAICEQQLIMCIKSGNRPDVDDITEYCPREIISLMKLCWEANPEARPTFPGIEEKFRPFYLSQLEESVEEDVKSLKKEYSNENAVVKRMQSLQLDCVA

Compound: O=C1N2[C@@H](CC[C@H]2c2ccccc2)OC12CN(c1ccnc3ccnn13)C2 [Example 4.136, (5′S,7a′R)-5′-phenyl-1-(pyrazolo[1,5-a]pyrimidin-7-yl)tetrahydro-3′H-spiro[azetidine-3,2′-pyrrolo[2,1-b] [1,3]oxazol]-3′-one]
- EC50: < 25 nM

Compound: O=C1N2[C@@H](CC[C@H]2c2ccccc2)OC12CCN(c1ncnc3ccsc13)CC2 [Example 4.37, (5′S,7a′R)-5′-phenyl-1-(thieno[3,2-d]pyrimidin-4-yl)tetrahydro-3′H-spiro[piperidine-4,2′-pyrrolo[2,1-b] [1,3]oxazol]-3′-one]
- EC50: < 25 nM

Compound: O=C1N2[C@@H](CC[C@H]2c2ccccc2)SC12CCN(c1ccnc3ccnn13)CC2 [Example 4.116, (5′S,7a′R)-5′-phenyl-1-(pyrazolo[1,5-a]pyrimidin-7-yl)tetrahydro-3′H-spiro[piperidine-4,2′-pyrrolo[2,1-b]thiazol]-3′-one]
- EC50: < 25 nM

Compound: O=C(c1coc(Cl)n1)N1CCC2(CC1)O[C@@H]1CC[C@@H](c3cccc(F)c3)N1C2=O [Example 6.127, (5′S,7a′R)-1-(2-chloro-1,3-oxazole-4-carbon-yl)-5′-(3-fluorophenyl)-tetrahydro-3′H-spiro [piperidine-4,2′-pyrrolo[2,1-b][1,3]oxazol]-3′-one]
- EC50: 60.8 nM

Compound: CC1CC2(CCN1C(=O)c1ncccc1F)O[C@@H]1CC[C@@H](c3cccc(F)c3)N1C2=O (stereo partly drawn) [Example 6.159, (4R,5′S,7a′R)-5′-(3-fluorophenyl)-1-(3-fluoropyridine-2-carbonyl)-2-methyl-tetrahydro-3′H-spiro [piperidine-4,2′-pyrrolo[2,1-b][1,3]oxazol]-3′-one]
- EC50: 826 nM

Compound: O=C1CCc2c1cccc2C(=O)N1CCC2(CC1)O[C@@H]1CC[C@@H](c3cc(F)cc(F)c3)N1C2=O [Example 5.28, (5′S,7a′R)-5′-(3,5-difluoro-phenyl)-1-(1-oxo-2,3-dihydro-1H-indene-4-carbonyl)tetrahydro-3′H-spiro[piperidine-4,2′-pyrrolo[2,1-b]oxazol]-3′-one]
- EC50: 208 nM

Compound: N#Cc1cc(N2CCC3(CC2)N=C2CC[C@@H](c4cc(F)cc(F)c4)N2C3=O)ncn1 [Example 4.80, (S)-[5′-(3,5-difluorophenyl)-3′-oxo-6′,7′-dihydro-1H,3′H,5′H-spiro[piperidine-4,2′-pyrrolo[1,2-a]imidazol]-1-yl]pyrimidine-4-carbonitrile]
- EC50: 494 nM

Compound: O=C1N2[C@@H](CC[C@H]2c2ccccc2F)OC12CN(c1ccnc(-c3ccc(F)cc3)c1)C2 [Example 4.139, (5′S,7a′R)-5′-(2-fluorophenyl)-1-[2-(4-fluorophenyl)pyridin-4-yl]tetrahydro-3′H-spiro[azetidine-3,2′-pyrrolo[2,1-b] [1,3]oxazol]-3′-one]
- EC50: < 25 nM

Compound: O=C1N2[C@@H](CC[C@H]2c2cc(F)cc(F)c2)OC12CCN(c1cc(-c3ccccc3)ncn1)CC2 [Example 4.13, (5′S,7a′R)-5′-(3,5-difluorophenyl)-1-(6-phenylpyrimidin-4-yl)tetrahydro-3′H-spiro[piperidine-4,2′-pyrrolo[2,1-b] [1,3]oxazol]-3′-one]
- EC50: < 25 nM

Compound: COC(=O)c1cnc(N2CCC3(CC2)O[C@@H]2CC[C@@H](c4ccccc4)N2C3=O)nc1 [Example 4.194, methyl 2-[(5′S,7a′R)-3′-oxo-5′-phenyltetrahydro-1H,3′H-spiro[piperidine-4,2′-pyrrolo[2,1-b] [1,3]oxazol]-1-yl]pyrimidine-5-carboxylate]
- EC50: 699 nM

Compound: O=C1N2[C@@H](CC[C@H]2c2cc(F)cc(F)c2)OC12CCN(c1ncc(F)cn1)CC2 [Example 4.67, (5′S,7a′R)-5′-(3,5-difluorophenyl)-1-(5-fluoropyrimidin-2-yl)tetrahydro-3′H-spiro[piperidine-4,2′-pyrrolo[2,1-b] [1,3]oxazol]-3′-one]
- EC50: 89.2 nM

Compound: Cc1cccc(C(=O)N2CCC3(CC2)O[C@@H]2CC[C@@H](c4cc(F)cc(F)c4)N2C3=O)c1F [Example 6.8, (5′S,7a′R)-5′-(3,5-difluorophenyl)-1-(2-fluoro-3-methyl-benzene-1-carbonyl) tetrahydro-3′H-spiro [piperidine-4,2′-pyrrolo[2,1-b][1,3]oxazol]-3′-one]
- EC50: < 25 nM

Compound: O=C1N2[C@@H](CC[C@H]2c2ccccc2)OC12CCN(c1ccnc3c(F)cnn13)CC2F (single isomer, unassigned) [Example 4.91, (3[R or S],4[S or R], 5′S,7a′R)-3-fluoro-1-(3-fluoropyrazolo[1,5-a]pyrimidin-7-yl)-5′-phenyltetrahydro-3′H-spiro[piperidine-4,2′-pyrrolo[2,1-b]oxazol]-3′-one, TFA salt]
- EC50: < 25 nM

Compound: O=C1N2[C@@H](CC[C@H]2c2ccccc2)OC12CCN(c1ncc(-c3ncco3)c(C(F)(F)F)n1)CC2 [Example 21.2, (5′S,7a′R)-1-[5-(1,3-oxazol-2-yl)-4-(trifluoromethyl)pyrimidin-2-yl]-5′-phenyltetrahydro-3′H-spiro[piperidine-4,2′-pyrrolo[2,1-b][1,3]oxazol]-3′-one]
- EC50: < 25 nM

Compound: COc1nc(N2CCC3(CC2)O[C@@H]2CC[C@@H](c4cc(F)cc(F)c4)N2C3=O)ncc1F [Example 4.21, (5′S,7a′R)-5′-(3,5-difluorophenyl)-1-(5-fluoro-4-methoxypyrimidin-2-yl)tetrahydro-3′H-spiro[piperidine-4,2′-pyrrolo[2,1-b] [1,3]oxazol]-3′-one]
- EC50: < 25 nM

Compound: O=C(NC1(C(F)(F)F)CC1)c1nc(N2CCC3(CC2)O[C@@H]2CC[C@@H](c4cc(F)cc(F)c4)N2C3=O)ncc1F [Example 7.10, 2-[(5′S,7a′R)-5′-(3,5-difluorophenyl)-3′-oxotetrahydro-1H,3′H-spiro[piperidine-4,2′-pyrrolo[2,1-b][1,3]oxazol]-1-yl]-5-fluoro-N-[1-(trifluoromethyl)cyclo-propyl]pyrimidine-4-carboxamide]
- EC50: 147 nM

Compound: O=C1N2[C@@H](CC[C@H]2c2ccccc2F)OC12CN(c1ccnc(-c3cnn(C(F)F)c3)c1)C2 [Example 4.138, (5′S,7a′R)-1-{2-[1-(difluoromethyl)-1H-pyrazol-4-yl]pyridin-4-yl}-5′-(2-fluorophenyl)tetrahydro-3′H-spiro[azetidine-3,2′-pyrrolo[2,1-b] [1,3]oxazol]-3′-one]
- EC50: 145 nM

Compound: O=C1N2[C@@H](CC[C@H]2c2ccccc2)OC12CN(c1cccc3ncnn13)C2 [Example 13.22, (5′S,7a′R)-1-([1,2,4]triazolo[1,5-a]pyridin-5-yl)-5′-phenyltetrahydro-3′H-spiro[azetidine-3,2′-pyrrolo[2,1-b]oxazol]-3′-one, TFA salt]
- EC50: 37.6 nM

Compound: Nc1nnc(N2CCC3(CC2)O[C@@H]2CC[C@@H](c4ccccc4)N2C3=O)s1 [Example 11.23, (5′S,7a′R)-1-(5-amino-1,3,4-thiadiazol-2-yl)-5′-phenyltetrahydro-3′H-spiro[piperidine-4,2′-pyrrolo[2,1-b][1,3]oxazol]-3′-one]
- EC50: 306 nM

Compound: Cn1cccc1C(=O)N1CCC2(CC1)O[C@@H]1CC[C@@H](c3cc(F)cc(F)c3)N1C2=O [Example 5.48, (5′S,7a′R)-5′-(3,5-difluoro-phenyl)-1-(1-methyl-1H-pyrrole-2-carbonyl)tetra-hydro-3′H-spiro[piperidine-4,2′-pyrrolo[2,1-b]oxazol]-3′-one]
- EC50: 42.2 nM

Compound: CC1C[C@@]2(CCN1C(=O)c1ccccc1)O[C@@H]1CC[C@@H](c3cccc(F)c3)N1C2=O (stereo partly drawn) [Example 6.161, (4R,5′S,7a′R)-1-(benzenecarbonyl)-5′-(3-fluorophenyl)-2-methyltetrahydro-3′H-spiro[piperidine-4,2′-pyrrolo[2,1-b][1,3]-oxazol]-3′-one]
- EC50: 275 nM

Compound: CN(C)C(=O)c1ccc(N2CCC3(CC2)O[C@@H]2CC[C@@H](c4ccccc4)N2C3=O)nc1 [Example 4.167, N,N-dimethyl-6-[(5′S,7a′R)-3′-oxo-5′-phenyltetrahydro-1H,3′H-spiro[piperidine-4,2′-pyrrolo[2,1-b] [1,3]oxazol]-1-yl]pyridine-3-carboxamide]
- EC50: 259 nM

Compound: O=C1N2[C@@H](CC[C@H]2c2ccccc2)OC12CCN(c1cc(F)c(O)cn1)CC2 [Example 4.209, (5′S,7a′R)-1-(4-fluoro-5-hydroxypyridin-2-yl)-5′-phenyltetrahydro-3′H-spiro[piperidine-4,2′-pyrrolo[2,1-b] [1,3]oxazol]-3′-one]
- EC50: 166 nM

Compound: O=C1N2C(=NC13CCN(c1cc(F)ccn1)CC3)CC[C@H]2c1cc(F)cc(F)c1 [Example 11.1]
- EC50: 885 nM

Compound: O=C(c1noc2c1CCCC2)N1CCC2(CC1)O[C@@H]1CC[C@@H](c3cc(F)cc(F)c3)N1C2=O [Example 6.17, (5′S,7a′R)-5′-(3,5-difluorophenyl)-1-(4,5,6,7-tetrahydro-1,2-benoxazole-3-carbonyl)tetrahydro-3′H-spiro[piperidine-4,2′-pyrrolo[2,1-b] [1,3]oxazol]-3′-one]
- EC50: 173 nM

Compound: Cc1cnn(-c2cc(N3CCC4(CC3)O[C@@H]3CC[C@@H](c5ccccc5)N3C4=O)ncn2)c1 [Example 4.26, (5′S,7a′R)-1-[6-(4-methyl-1H-pyrazol-1-yl)pyrimidin-4-yl]-5′-phenyltetrahydro-3′H-spiro[piperidine-4,2′-pyrrolo[2,1-b] [1,3]oxazol]-3′-one]
- EC50: 24.6 nM

Compound: O=C(c1cc(F)c(F)cc1F)N1CCC2(CC1)O[C@@H]1CC[C@@H](c3cc(F)cc(F)c3)N1C2=O [Example 5.4, (5′S,7a′R)-5′-(3,5-difluoro-phenyl)-1-(2,4,5-trifluoro-benzene-1-carbonyl)tetra-hydro-3′H-spiro[piperi-dine-4,2′-pyrrolo[2,1-b] [1,3]oxazol]-3′-one]
- EC50: < 25 nM

Compound: O=C1N2[C@@H](CC[C@H]2c2ccccc2F)OC12CCN(c1cccc3ncnn13)CC2 [Example 4.253, (5′S,7a′R)-5′-(2-fluorophenyl)-1-([1,2,4]triazolo[1,5-a]pyridin-5-yl)tetrahydro-3′H-spiro[piperidine-4,2′-pyrrolo[2,1-b] [1,3]oxazol]-3′-one]
- EC50: < 25 nM
